Values quoted from earlier work, collected in patent US10265413B2, “High molecular weight biodegradable gelatin-doxorubicin conjugate” (priority 2014, dated 2019).

Details: cumulative doses

SMILES: COc1cccc2c1C(=O)c1c(O)c3c(c(O)c1C2=O)C[C@@](O)(C(=O)CO)C[C@@H]3O[C@H]1C[C@H](N)[C@H](O)[C@H](C)O1 [DOX, (7S,9S)-7-[(2R,4S,5S,6S)-4-amino-5-hydroxy-6-methyloxan-2-yl]oxy-6,9,11-trihydroxy-9-(2-hydroxyacetyl)-4-methoxy-8,10-dihydro-7H-tetracene-5,12-dione]
- cumulative dose above which irreversible cardiomyopathy occurs: > 550 mg/m^2
